Results as given in patent US20150231147A1, “METHODS FOR ACUTE AND LONG-TERM TREATMENT OF DRUG ADDICTION” (DemeRx, Inc., priority 2014, published 2015).

Test system: opioid-dependent participants
Experiment: Treatment emergent adverse events in opioid-dependent participants
Type: in vivo, human
Details: opioid-dependent patients
Experimental: The efficacy of noribogaine in humans was evaluated in opioid-dependent participants in a randomized, placebo-controlled, double-blind trial. […] See U.S. application Ser. No. 14/214,157, filed Mar. 14, 2014 and Ser. No. 14/346,655, filed Mar. 21, 2014, which are incorporated herein by reference in their entireties.
Three cohorts of nine (9) subjects (6 administered noribogaine and 3 administered placebo in each cohort) were evaluated for tolerability, pharmacokinetics, and efficacy. Cohort 1 received a single dose of 60 mg noribogaine or placebo. Cohort 2 received a single dose of 120 mg noribogaine or placebo. Cohort 3 received a single dose of 180 mg noribogaine or placebo.

CC[C@H]1CC2C[C@H]3c4[nH]c5ccc(O)cc5c4CCN(C2)C13 [Noribogaine]
Treatment emergent AEs: Catheter Site Infection (single 60 mg dose (N = 6)): 0 | Treatment emergent AEs: Catheter Site Pain (single 60 mg dose (N = 6)): 0 | Treatment emergent AEs: Catheter Site Related Reaction (single 60 mg dose (N = 6)): 0 | Treatment emergent AEs: Cellulitis (single 60 mg dose (N = 6)): 0 | Treatment emergent AEs: Diarrhoea (single 60 mg dose (N = 6)): 0 | Treatment emergent AEs: Dry Mouth (single 60 mg dose (N = 6)): 0 | Treatment emergent AEs: Ear and Labyrinth Disorders (single 60 mg dose (N = 6)): 0 | Treatment emergent AEs: Epistaxis (single 60 mg dose (N = 6)): 0 | Treatment emergent AEs: Euphoric Mood (single 60 mg dose (N = 6)): 0 | Treatment emergent AEs: General Disorders and Administration Site Conditions (single 60 mg dose (N = 6)): 0 | Treatment emergent AEs: Hyperaesthesia (single 60 mg dose (N = 6)): 0 | Treatment emergent AEs: Infections and Infestations (single 60 mg dose (N = 6)): 0 | Treatment emergent AEs: Limb Discomfort (single 60 mg dose (N = 6)): 0 | Treatment emergent AEs: Malaise (single 60 mg dose (N = 6)): 0 | Treatment emergent AEs: Nausea (single 60 mg dose (N = 6)): 0 | Treatment emergent AEs: Oropharyngeal Pain (single 60 mg dose (N = 6)): 0 | Treatment emergent AEs: Pseudoparalysis (single 60 mg dose (N = 6)): 0 | Treatment emergent AEs: Respiratory, Thoracic and Mediestinal Disorders (single 60 mg dose (N = 6)): 0 | Treatment emergent AEs: Rhinorrhoea (single 60 mg dose (N = 6)): 0 | Treatment emergent AEs: Skin Discomfort (single 60 mg dose (N = 6)): 0 | Treatment emergent AEs: Skin Irritation (single 60 mg dose (N = 6)): 0 | Treatment emergent AEs: Skin and Subcutaneous Tissue Disorders (single 60 mg dose (N = 6)): 0 | Treatment emergent AEs: Somnolence (single 60 mg dose (N = 6)): 0 | Treatment emergent AEs: Tinnitus (single 60 mg dose (N = 6)): 0 | Treatment emergent AEs: Tremor (single 60 mg dose (N = 6)): 0 | Treatment emergent AEs: Urinary Tract Infection (single 60 mg dose (N = 6)): 0 | Treatment emergent AEs: Vomiting (single 60 mg dose (N = 6)): 0 | Treatment emergent AEs: Back pain (single 120 mg dose (N = 6)): 0 | Treatment emergent AEs: Catheter Site Infection (single 120 mg dose (N = 6)): 0 | Treatment emergent AEs: Catheter Site Related Reaction (single 120 mg dose (N = 6)): 0 | Treatment emergent AEs: Depressed Mood (single 120 mg dose (N = 6)): 0 | Treatment emergent AEs: Dry Eye (single 120 mg dose (N = 6)): 0 | Treatment emergent AEs: Dyspepsia (single 120 mg dose (N = 6)): 0 | Treatment emergent AEs: Euphoric Mood (single 120 mg dose (N = 6)): 0 | Treatment emergent AEs: Limb Discomfort (single 120 mg dose (N = 6)): 0 | Treatment emergent AEs: Malaise (single 120 mg dose (N = 6)): 0 | Treatment emergent AEs: Musculoskeletal and Connective Tissue Disorders (single 120 mg dose (N = 6)): 0 | Treatment emergent AEs: Psychiatric Disorders (single 120 mg dose (N = 6)): 0 | Treatment emergent AEs: Somnolence (single 120 mg dose (N = 6)): 0 | Treatment emergent AEs: Urinary Tract Infection (single 120 mg dose (N = 6)): 0 | Treatment emergent AEs: Catheter Site Infection (single 180 mg dose (N = 6)): 0 | Treatment emergent AEs: Catheter Site Pain (single 180 mg dose (N = 6)): 0 | Treatment emergent AEs: Depressed Mood (single 180 mg dose (N = 6)): 0 | Treatment emergent AEs: Diarrhoea (single 180 mg dose (N = 6)): 0 | Treatment emergent AEs: Dry Eye (single 180 mg dose (N = 6)): 0 | Treatment emergent AEs: Dyspepsia (single 180 mg dose (N = 6)): 0 | Treatment emergent AEs: Ear and Labyrinth Disorders (single 180 mg dose (N = 6)): 0 | Treatment emergent AEs: Epistaxis (single 180 mg dose (N = 6)): 0 | Treatment emergent AEs: Euphoric Mood (single 180 mg dose (N = 6)): 0 | Treatment emergent AEs: Hyperaesthesia (single 180 mg dose (N = 6)): 0 | Treatment emergent AEs: Malaise (single 180 mg dose (N = 6)): 0 | Treatment emergent AEs: Oropharyngeal Pain (single 180 mg dose (N = 6)): 0 | Treatment emergent AEs: Pseudoparalysis (single 180 mg dose (N = 6)): 0 | Treatment emergent AEs: Psychiatric Disorders (single 180 mg dose (N = 6)): 0 | Treatment emergent AEs: Respiratory, Thoracic and Mediestinal Disorders (single 180 mg dose (N = 6)): 0 | Treatment emergent AEs: Rhinorrhoea (single 180 mg dose (N = 6)): 0 | Treatment emergent AEs: Skin Discomfort (single 180 mg dose (N = 6)): 0 | Treatment emergent AEs: Skin Irritation (single 180 mg dose (N = 6)): 0 | Treatment emergent AEs: Skin and Subcutaneous Tissue Disorders (single 180 mg dose (N = 6)): 0 | Treatment emergent AEs: Somnolence (single 180 mg dose (N = 6)): 0 | Treatment emergent AEs: Tinnitus (single 180 mg dose (N = 6)): 0 | Treatment emergent AEs: Tremor (single 180 mg dose (N = 6)): 0 | adverse effects observed (single 60, 120 or 180 mg dose): Few adverse effects | hallucinatory effects (single 60, 120 or 180 mg dose): no hallucinatory effects
